Measurements reported in the supplement of paper PMC10307832.

How the values were obtained:
Assay in all cases: relative viability (nuclei count vs DMSO), 5 days (fraction); higher = more cells survive
Ponatinib + Bortezomib = compound: Cc1ccc(C(=O)Nc2ccc(CN3CCN(C)CC3)c(C(F)(F)F)c2)cc1C#Cc1cnc2cccnn12 [Ponatinib] + CC(C)C[C@H](NC(=O)[C@H](Cc1ccccc1)NC(=O)c1cnccn1)B(O)O [Bortezomib] (partner 0.002 µM)
Procedure, shortened: (§1)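 Lung cancer cell lines were pin-tool dosed in 1536-well plates on the day after seeding, with either a lone drug or a fixed anchor-drug dose plus five library-drug doses (not always all listed) in √10 steps. Nuclei were counted on 4× images after 5 days. Relative viability is the ratio of treated-well to vehicle-well nuclei counts, with each value a median of duplicate plates.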

Ponatinib + Pictilisib = compound: Cc1ccc(C(=O)Nc2ccc(CN3CCN(C)CC3)c(C(F)(F)F)c2)cc1C#Cc1cnc2cccnn12 [Ponatinib] + CS(=O)(=O)N1CCN(Cc2cc3nc(-c4cccc5[nH]ncc45)nc(N4CCOCC4)c3s2)CC1 [Pictilisib] (partner 1 µM)
Procedure, shortened: as §1

Ponatinib + Olaparib = compound: Cc1ccc(C(=O)Nc2ccc(CN3CCN(C)CC3)c(C(F)(F)F)c2)cc1C#Cc1cnc2cccnn12 [Ponatinib] + O=C(c1cc(Cc2n[nH]c(=O)c3ccccc23)ccc1F)N1CCN(C(=O)C2CC2)CC1 [Olaparib] (partner 8 µM)
Procedure, shortened: as §1

Pazopanib + Dasatinib = compound: Cc1ccc(Nc2nccc(N(C)c3ccc4c(C)n(C)nc4c3)n2)cc1S(N)(=O)=O [Pazopanib] + Cc1nc(Nc2ncc(C(=O)Nc3c(C)cccc3Cl)s2)cc(N2CCN(CCO)CC2)n1 [Dasatinib] (partner 0.075 µM)
Procedure, shortened: as §1

| Cell Line | relative viability (Ponatinib + Bortezomib; first compound 0.002 µM) | relative viability (Ponatinib + Bortezomib; first compound 0.006325 µM) | relative viability (Ponatinib + Bortezomib; first compound 0.06325 µM) | relative viability (Ponatinib + Bortezomib; first compound 0.2 µM) | relative viability (Ponatinib + Pictilisib; first compound 0.002 µM) | relative viability (Ponatinib + Pictilisib; first compound 0.006325 µM) | relative viability (Ponatinib + Pictilisib; first compound 0.06325 µM) | relative viability (Ponatinib + Pictilisib; first compound 0.2 µM) | relative viability (Ponatinib + Olaparib; first compound 0.002 µM) | relative viability (Ponatinib + Olaparib; first compound 0.006325 µM) | relative viability (Ponatinib + Olaparib; first compound 0.06325 µM) | relative viability (Ponatinib + Olaparib; first compound 0.2 µM) | relative viability (Pazopanib + Dasatinib; first compound 0.01 µM) | relative viability (Pazopanib + Dasatinib; first compound 0.03162 µM) | relative viability (Pazopanib + Dasatinib; first compound 0.1 µM) | relative viability (Pazopanib + Dasatinib; first compound 0.3162 µM) | relative viability (Pazopanib + Dasatinib; first compound 1 µM) |
| --- | --- | --- | --- | --- | --- | --- | --- | --- | --- | --- | --- | --- | --- | --- | --- | --- | --- |
| NCI-H322M | 1.19 | 1.27 | 1.44 | 1.21 | 0.523 | 0.522 | 0.53 | 0.536 | 0.787 | 0.729 | 0.739 | 0.649 | 0.265 | 0.258 | 0.257 | 0.275 | 0.277 |
| NCI-H441 | 0.592 | 0.363 | 0.402 | 0.452 | 0.608 | 0.48 | 0.49 | 0.313 | 0.437 | 0.477 | 0.578 | 0.438 | 0.451 | 0.612 | 0.643 | 0.565 | 0.658 |
| NCI-H460 | 1.01 | 0.98 | 1.06 | 0.974 | 0.383 | 0.441 | 0.469 | 0.452 | 0.335 | 0.395 | 0.412 | 0.397 | 0.274 | 0.472 | 0.566 | 0.603 | 0.758 |
| NCI-H520 | 0.623 | 0.83 | 0.874 | 0.439 | 0.253 | 0.248 | 0.259 | 0.249 | 0.335 | 0.355 | 0.325 | 0.225 | 0.142 | 0.183 | 0.213 | 0.145 | 0.25 |
| NCI-H596 | 0.88 | 0.959 | 0.905 | 0.829 | 0.354 | 0.401 | 0.36 | 0.374 | 0.662 | 0.72 | 0.787 | 0.661 | – | 0.617 | 0.454 | 0.6 | 0.575 |
| NCI-H647 | 0.825 | 0.964 | 1.15 | 0.969 | 0.381 | 0.449 | 0.434 | 0.376 | 0.521 | 0.527 | 0.615 | 0.522 | 0.135 | 0.21 | 0.224 | 0.243 | 0.25 |
| NCI-H650 | 0.536 | 0.695 | 0.575 | 0.703 | 0.843 | 0.739 | 0.758 | 0.88 | 0.344 | 0.417 | 0.452 | 0.401 | 0.398 | 0.511 | 0.449 | 0.427 | 0.482 |
| NCI-H661 | 0.714 | 0.88 | 0.962 | 0.63 | 0.404 | 0.406 | 0.389 | 0.482 | 0.724 | 0.704 | 0.833 | 0.737 | 0.908 | 0.894 | 0.815 | 0.931 | 1.15 |
| NCI-H727 | 0.625 | 0.856 | 0.851 | 0.824 | 0.367 | 0.514 | 0.356 | 0.333 | 0.609 | 0.742 | 0.587 | 0.627 | 0.402 | 0.378 | 0.394 | 0.444 | 0.413 |
| NCI-H838 | 0.903 | 1.05 | 0.698 | 0.817 | 0.564 | 0.505 | 0.455 | 0.455 | 0.758 | 0.771 | 0.795 | 0.669 | 0.273 | 0.278 | 0.297 | 0.278 | 0.334 |
| NCI-H1355 | 1.09 | 1.11 | 1.25 | 1.19 | 0.408 | 0.59 | 0.563 | 0.568 | 0.668 | 0.709 | 0.817 | 0.739 | 0.443 | 0.549 | 0.773 | 0.639 | 0.686 |
| NCI-H1437 | 0.572 | 0.681 | 0.608 | 0.66 | 0.445 | 0.479 | 0.495 | 0.406 | 0.598 | 0.595 | 0.654 | 0.623 | 0.399 | 0.465 | 0.353 | 0.396 | 0.723 |
| NCI-H1650 | 0.216 | 0.193 | 0.227 | 0.222 | 0.601 | 0.722 | 0.642 | 0.558 | 0.919 | 0.884 | 0.916 | 0.751 | 0.301 | 0.375 | 0.381 | 0.319 | 0.403 |
| NCI-H1651 | 0.936 | 0.869 | 0.975 | 0.983 | 0.61 | 0.728 | 0.552 | 0.634 | 0.197 | 0.195 | 0.18 | 0.177 | 0.371 | 0.46 | 0.397 | 0.436 | 0.5 |
| NCI-H1666 | 0.736 | 0.832 | 0.985 | 1.11 | 0.534 | 0.436 | 0.48 | 0.702 | 0.749 | 0.76 | 0.733 | 0.664 | 0.854 | 0.833 | 0.801 | 0.864 | 0.772 |
| NCI-H1734 | 0.87 | 0.957 | 0.917 | 0.905 | 0.421 | 0.456 | 0.414 | 0.365 | 0.62 | 0.618 | 0.673 | 0.488 | 0.387 | 0.471 | 0.458 | 0.459 | 0.478 |
| NCI-H1755 | 0.953 | 0.99 | 0.98 | 1.01 | 0.502 | 0.535 | 0.505 | 0.391 | 0.806 | 0.856 | 0.882 | 0.782 | 0.333 | 0.398 | 0.433 | 0.384 | 0.411 |
| NCI-H1792 | 0.918 | 0.942 | 1.14 | 0.854 | 0.241 | 0.347 | 0.388 | 0.284 | 0.44 | 0.587 | 0.489 | 0.313 | – | 0.728 | 0.681 | 0.834 | 0.774 |
